Compound	melting point [°C]
O=C1NC(=O)c2c1c(-c1ccccc1)cc1oc3ccc(O)cc3c21	288 to 290
COc1ccc(S(=O)(=O)N(Cc2ccccc2)C(C)C(=O)NO)cc1 (stereo not drawn)	127 to 129
C#CCN1C(=O)c2ccccc2C1OC (stereo not drawn)	85 to 87
O=C(Sc1ccccn1)c1ccc(Br)cc1	69 to 70
CN(CC(=O)O)C(=O)C(C)(C)Oc1ccc(C(=O)c2ccc(Cl)cc2)cc1	186 to 187
O=[N+]([O-])c1cccc(C2=NCN(c3cccnc3)S2)c1	109 to 111
O=c1c2c(Cc3ccccc3)n[nH]c2c2cccnc2n1-c1cccc([N+](=O)[O-])c1	276 to 279
CNS(=O)(=O)OCCOc1ccccc1	66 to 68
Cc1cccc(C2OCC(OCc3ccccc3)CO2)c1 (stereo not drawn)	68 to 70
CC(C)(C)COc1cccc(C[C@H]2NC(=O)O[C@H]2c2cccc(Cl)c2)c1 (racemic)	141 to 142
CCCc1ccc(C(=O)NCCc2cccs2)cc1	97 to 99
CC(=O)OC1N=C(c2ccccc2)c2cc(Cl)ccc2-c2c1nc(C)[nH]c2=O (stereo not drawn)	> 320
COc1ccc(C(=O)Nc2ccccc2C(O)C2CCCCN2)cc1 (stereo not drawn)	158 to 160
O=C(O)CCCCCCCCCCc1ccc(Br)cc1	91
CON1CCC2(CC1)C(=O)C(c1c(C)ccc(Cl)c1C)([N+](=O)[O-])C(=O)N2OC (stereo not drawn)	94 to 97
COc1cc(OC)nc(NC(=O)NS(=O)(=O)c2ccccc2CS(=O)(=O)N(C)C)n1	172 to 176
Cn1nc(-c2cccc(-n3ncc4cc(C(C)(C)C)cc(F)c4c3=O)c2CO)cc(Nc2cnc(C(F)(F)F)cn2)c1=O	250 to 254
COC(=O)c1ccc(Cl)cc1NC(=O)CSc1ccc(C)cc1	91 to 93
Nc1cc(Cl)nn1-c1c(Cl)cc(C(F)(F)F)cc1Cl	128 to 129
Clc1cc(Cl)c2c(CCBr)coc2c1	43
CC(=O)Nc1cc(C)c([N+](=O)[O-])cc1CCOC(C)=O	125
CCOC(=O)C(c1c(F)cc(C#N)cc1F)c1cc(C)c(C(=O)c2ccc(Cl)cc2)n1C (stereo not drawn)	155 to 156
CCCOc1ncc(I)cc1-c1nc2c(CC)nn(CCN3CCOCC3)c2c(=O)[nH]1	175 to 177
CCN(CC(F)(F)F)c1cccc([N+](=O)[O-])c1	66
CC(C)(C)OC(=O)N1C[C@@H]([C@H]2COC(C)(C)O2)CC1=O	106 to 108
CC(C)c1nn(Cc2ccc(Cl)cc2Cl)cc1CCCO	68 to 69

Compound	melting point [°C]
C=C1CCCCC1(C(=S)NC)c1cccnc1 (stereo not drawn)	106 to 108
CCCCCCCCCCCC(=O)N1c2ccccc2C(=O)N(C(C)C)S1(=O)=O	57.5 to 58.5
CC(C)N1C(=O)N(c2ccc(C#N)c(C(F)(F)F)c2)C(=O)C1(CF)CF	153 to 154
CN(CCN(C)c1ccnc2c(NC(=O)c3c(Cl)cccc3Cl)cccc12)C(=O)c1cccnc1	195 to 203
Clc1ccc(-c2cn([C@H]3CN4CCC3CC4)nn2)cc1Cl	108
O=C(O)C[C@H](NC(=O)Nc1ccc([N+](=O)[O-])cc1)C(=O)O	118 to 120
CC(=O)OCCN1CCNC1=Nc1ccccc1N1CCOCC1	89 to 91
Cc1cc(Cn2cc(C(F)(F)C(F)(F)F)c(C(F)(F)C(F)(F)F)n2)ccc1NC(=O)c1cccc(Br)c1C(=O)N[C@@H](C)CS(C)=O (stereo partly drawn)	127 to 129
CCN(CC)S(=O)(=O)c1ccc2c(c1)-c1c(nc(C)[nH]c1=O)CC2	249 to 251
COc1cc(NC(=O)Nc2ccccc2)c(O)c(OC)c1OC	123 to 125
COc1ccc(-c2ccc(C(=O)Nc3ccc4cc(CN5CCCC5)cnc4c3C)cc2F)cc1	174 to 176
O=C(Nc1cccc(CN2C(=O)[C@H]3CCC[C@H]3Nc3ccccc32)c1)OCc1ccccc1 (relative stereo)	179 to 180
CC(=C1SCCCS1)c1ccc(Sc2ccc(O)cc2)cc1	113 to 114
COC(=O)c1ccc(C=C(C)[N+](=O)[O-])c(Cl)c1	74 to 77
CCCCCCN(O)C(=O)N(C)C	19 to 20
CC(Cc1c[nH]c2ccccc12)NC(=O)C=C1CCC(c2ccccc2)(N(C)C)CC1 (stereo not drawn)	184 to 187
O=C1N(CCCCN2CCN(c3n[nH]c4cc(F)ccc34)CC2)CSC12CCCCC2	163 to 165
CCCCN(CCCC)Cc1nc(-c2ncn3c2CN(C)C(=O)c2ccccc2-3)no1	105 to 110
CC(C)(O)c1nnn(Cc2cccc(C(F)(F)F)c2)c1I	77 to 80
CCOC(=O)c1cnc2occ(Br)c2c1	107 to 108
COCCOc1nc(Cl)ncc1Cc1ccc(C)nc1	50 to 52
CC(=O)NC1CCc2c(n(C)c3ccccc23)C1 (stereo not drawn)	171 to 172
CC1(CO)Cn2cc([N+](=O)[O-])nc2O1 (stereo not drawn)	162 to 163
Nc1c2c(nc3ccccc13)-c1ccccc1CCC2	190 to 192
CC(C)(CO)NC(=O)c1nn(-c2ccc(F)cc2F)c2c1C1CCC2C1 (stereo not drawn)	142 to 144
COc1ccc(C(=O)c2ccc3cc(OC)ccc3c2)c(F)c1	120 to 122

Compound	melting point [°C]
N#CN=C(NCNC(=O)c1ccc(Cl)cc1)Nc1cccnc1	196 to 197
COc1ccc(-c2nc(O)cc(O)n2)cc1	318
COC(=O)c1nc2n(n1)-c1ccccc1N(c1cccc(C)c1C)C2	170 to 172
CCCCCCCCCCOc1ccc(C(=O)O)cc1C12CC3CC(CC(C3)C1)C2	151 to 152
Cc1ccccc1NC(=O)NCC1(c2ccccc2)CCCCC1	171 to 174
OCc1ccc(-c2ccc(O)cc2)c(-c2ccc(O)cc2)c1	214
CC(=O)C(=Cc1ccc(S(C)(=O)=O)c(F)c1)C(C)=O	140 to 143
CN(C)C(=O)COc1ccc(I)cc1	63 to 65
Cc1ccc(S(=O)(=O)O[C@@H]2C[C@@H](C(=O)NC(C)(C)C)N(C(=O)OC(C)(C)C)C2)cc1	125 to 127
CCCSCc1cccc(-c2nc(=O)c3ccccc3s2)n1	112 to 113
CCOC(=O)c1cn2c(cc(Cl)c3ccccc32)n1	169 to 170
O=C(NC1CC1)c1ccc(-c2ccc3nnn(Cc4ccc5ncccc5c4)c3n2)cc1Cl	197 to 199
CCOC(=O)C(C)(C)NC(=O)c1ccc(S(=O)(=O)n2c(=O)n(C3CCCCC3)c3cc(OCC)ccc32)c(OC)c1	202
CCOC(=O)c1[nH]c2ccc(C)cc2c(=O)c1C	190 to 193
Oc1ccc(C=Cc2ccncc2)cc1	272 to 275
COC(=O)c1nc(OC)nc(OC)c1Cl	98 to 100
CC#CCOc1ccc(S(=O)(=O)C(C(=O)NO)C2CCN(C(=O)OC(C)(C)C)CC2)cc1 (stereo not drawn)	80
COCc1c(O)ccc2c1CCCC2=O	142 to 143
Cc1c(NC(=O)c2ccc(-c3ccc(F)cc3)cc2)ccc2cc(CN3C(C)CCCC3C)cnc12 (stereo not drawn)	167 to 168
CC(C)c1cc2nc(N)sc2cc1Sc1ccc(CCc2ccc(F)cc2)c(CCC2=C(O)CC(C(C)C)OC2=O)c1 (stereo not drawn)	204 to 206
CC(C)(O)CCn1c(=O)n(C(=O)N[C@H](C(N)=O)C(C)(C)C)c2ccccc21	248
NC(=O)c1c(N)sc2c1CCC1(C2)OCCO1	157 to 158
OCCOc1nccc(-c2c(-c3ccc(F)cc3)ncn2C2CCC(O)CC2)n1 (stereo not drawn)	191 to 193
CC(C)N1C(=O)CCCc2cc(Nc3ncc(Cl)c(N[C@@H]4CCCC[C@H]4NS(C)(=O)=O)n3)ccc21	141 to 143
CC1=C(c2ccnc3ccccc23)SCC(=O)N1	174 to 176
CC(C)(C)OC(=O)N1CCN(CCC#N)CC1C(N)=O (stereo not drawn)	117 to 118

Compound	melting point [°C]
COc1c(Br)c(O)c(Br)c2nc(-c3ccc(O)cc3)oc12	246 to 248
CC(C)c1cccc(C(C)C)c1NC(=O)NCC1(c2ccc(Cl)cc2)CCCC1	189 to 192
O=C(O)CCCC(=O)S[C@@H]1CC(=O)N(Cc2ccc(Oc3ccc(F)cc3)nc2)C1	132 to 133
N#Cc1ccc(CCn2ccn(C3CCc4ccccc4C3)c2=S)cc1 (stereo not drawn)	169 to 170
O=c1[nH]c(CCN2CCN(c3nsc4ccccc34)CC2)cs1	190
O=C(O)c1cccc(OCc2ccccc2)c1[N+](=O)[O-]	198 to 200
O=C1CCc2sccc21	87 to 88
CSC1C(=O)Nc2c(-c3ccccc3)cccc21 (stereo not drawn)	164 to 166
N#CC1Sc2ccccc2N1C(=O)c1ccc(F)cc1 (stereo not drawn)	150 to 151
O=C(O)Cc1c(C(=O)c2ccc(-c3ccco3)cc2)[nH]c2cc(Cl)ccc12	230 to 232
CCCN1C(=O)C2(CC(C)C)CC(c3ccc(N)cc3)(C2)C1=O	86.5 to 87
Cn1nc(-c2ccccc2F)nc1-c1ccccc1C(F)(F)F	104 to 107
CCCCOc1ccc(-c2ncc(C#N)c(Cl)n2)cc1	170
CCC1C(=O)CCC(Cc2ccc(OC)cc2)(Cc2ccc(OC)cc2)C1C (stereo not drawn)	106 to 107
CC(=O)Nc1cc([N+](=O)[O-])ccc1OCCCN	110 to 120
OCCC1c2ccccc2C(O)=NN1c1cccc(C(F)(F)F)c1 (stereo not drawn)	183 to 184
CC1SC(=O)NN=C1c1ccc2c(c1)C(=Cc1ccccc1O)C(=O)N2 (stereo not drawn)	233
CCN(c1ccc(C(C)=O)cc1)c1nc(=O)c2cccnc2s1	204
CCCN1CCN(c2cc3ccccc3c(=O)[nH]2)CC1CO (stereo not drawn)	152 to 154
O=C(C1CC1)N1CCc2cc(S(=O)(=O)N3CCN(c4cccc(Cl)c4)CC3)ccc21	162 to 163
Cc1cccc2c(=O)[nH]c(C3CCC(N(C)C)CC3)nc12 (stereo not drawn)	181 to 183
CC(C)c1cccc(C(C)C)c1NC(=O)C(C)C1c2ccccc2Oc2ccccc21 (stereo not drawn)	210 to 211
O=C(O)c1cn(-c2cccnc2)c2c(F)c(F)c(F)cc2c1=O	122 to 124
O=C(CCC(=O)N1CCC[C@H]1C(=O)O)c1ccc(Br)s1	166 to 168
O=S1(=O)CS(=O)(=O)OCO1	146
